From the supplement of paper PMC7214452

How the values were obtained:
Assay in all cases: normalized area under the dose-response curve (viability relative to DMSO control) (fraction); higher = less sensitive (more viable cells)
Details in all cases: exposure time not given
[1] = test system: KMS34 (cancer type: MM)
Method: (§1)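 25 myeloma and 15 non-Hodgkin lymphoma cell lines were exposed to each of 76 drugs as 7-point log dilutions (0.01 nM–10 µM) in duplicate. Viability was read with CellTiter-Glo and normalised to DMSO (0.1%) and staurosporine (10 µM) plate controls. Normalised AUC was calculated by the trapezoidal method relative to the negative control.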

[2] = test system: KMS28PE (cancer type: MM)
Method: as §1

[3] = test system: U266 (cancer type: MM)
Method: as §1

[4] = test system: OPM2 (cancer type: MM)
Method: as §1

[5] = test system: FR4 (cancer type: MM)
Method: as §1

[6] = test system: SR-786 (cancer type: TCL)
Method: as §1

[7] = test system: MM1.S (cancer type: MM)
Method: as §1

[8] = test system: SKMM2 (cancer type: MM)
Method: as §1

[9] = test system: Se-Ax (cancer type: TCL)
Method: as §1

[10] = test system: My-La (cancer type: TCL)
Method: as §1

[11] = test system: Granta-519 (cancer type: Mantle)
Method: as §1

[12] = test system: JJN3 (cancer type: MM)
Method: as §1

[13] = test system: OCI-LY19 (cancer type: DLBCL)
Method: as §1

[14] = test system: XG2 (cancer type: MM)
Method: as §1

[15] = test system: OCI-MY5/CRBN (cancer type: MM)
Method: as §1

[16] = test system: OCI-MY5 (cancer type: MM)
Method: as §1

[17] = test system: KMS12PE (cancer type: MM)
Method: as §1

[18] = test system: KMS18 (cancer type: MM)
Method: as §1

[19] = test system: SU-DHL1 (cancer type: TCL)
Method: as §1

[20] = test system: OCI-MY7 (cancer type: MM)
Method: as §1

[21] = test system: JeKo-1 (cancer type: Mantle)
Method: as §1

[22] = test system: KMS26 (cancer type: MM)
Method: as §1

[23] = test system: SU-DHL6 (cancer type: DLBCL)
Method: as §1

[24] = test system: MM1.R (cancer type: MM)
Method: as §1

[25] = test system: AMO1 (cancer type: MM)
Method: as §1

[26] = test system: NCI-H929 (cancer type: MM)
Method: as §1

[27] = test system: Mino (cancer type: Mantle)
Method: as §1

[28] = test system: Karpas-299 (cancer type: TCL)
Method: as §1

[29] = test system: OCI-MY5/Vec (cancer type: MM)
Method: as §1

[30] = test system: OCI-LY1 (cancer type: DLBCL)
Method: as §1

[31] = test system: KMS11 (cancer type: MM)
Method: as §1

[32] = test system: OCI-LY3 (cancer type: DLBCL)
Method: as §1

[33] = test system: EJM (cancer type: MM)
Method: as §1

[34] = test system: JVM2 (cancer type: Mantle)
Method: as §1

[35] = test system: RPMI 8226 (cancer type: MM)
Method: as §1

[36] = test system: HuT 78 (cancer type: TCL)
Method: as §1

[37] = test system: KMS28BM (cancer type: MM)
Method: as §1

[38] = test system: LP1 (cancer type: MM)
Method: as §1

[39] = test system: SU-DHL2 (cancer type: DLBCL)
Method: as §1

[40] = test system: L363 (cancer type: MM)
Method: as §1

| Structure (SMILES) | normalized area under the dose-response curve [1] | normalized area under the dose-response curve [2] | normalized area under the dose-response curve [3] | normalized area under the dose-response curve [4] | normalized area under the dose-response curve [5] | normalized area under the dose-response curve [6] | normalized area under the dose-response curve [7] | normalized area under the dose-response curve [8] | normalized area under the dose-response curve [9] | normalized area under the dose-response curve [10] | normalized area under the dose-response curve [11] | normalized area under the dose-response curve [12] | normalized area under the dose-response curve [13] | normalized area under the dose-response curve [14] | normalized area under the dose-response curve [15] | normalized area under the dose-response curve [16] | normalized area under the dose-response curve [17] | normalized area under the dose-response curve [18] | normalized area under the dose-response curve [19] | normalized area under the dose-response curve [20] | normalized area under the dose-response curve [21] | normalized area under the dose-response curve [22] | normalized area under the dose-response curve [23] | normalized area under the dose-response curve [24] | normalized area under the dose-response curve [25] | normalized area under the dose-response curve [26] | normalized area under the dose-response curve [27] | normalized area under the dose-response curve [28] | normalized area under the dose-response curve [29] | normalized area under the dose-response curve [30] | normalized area under the dose-response curve [31] | normalized area under the dose-response curve [32] | normalized area under the dose-response curve [33] | normalized area under the dose-response curve [34] | normalized area under the dose-response curve [35] | normalized area under the dose-response curve [36] | normalized area under the dose-response curve [37] | normalized area under the dose-response curve [38] | normalized area under the dose-response curve [39] | normalized area under the dose-response curve [40] |
| --- | --- | --- | --- | --- | --- | --- | --- | --- | --- | --- | --- | --- | --- | --- | --- | --- | --- | --- | --- | --- | --- | --- | --- | --- | --- | --- | --- | --- | --- | --- | --- | --- | --- | --- | --- | --- | --- | --- | --- | --- |
| COc1nc(N)nc2c1ncn2[C@@H]1O[C@H](CO)[C@@H](O)[C@@H]1O [Nelarabine] | 0.88 | 0.951 | 0.985 | 0.978 | 1.01 | 0.902 | 0.91 | 0.96 | 0.779 | 0.929 | 0.99 | 0.987 | 0.993 | 0.935 | 0.928 | 0.98 | 0.92 | 0.973 | 0.858 | 0.94 | 0.921 | 0.861 | 0.989 | 0.85 | 0.948 | 0.95 | 0.978 | 0.972 | 0.946 | 0.996 | 0.992 | 1.01 | 0.889 | 0.883 | 0.915 | 0.913 | 0.924 | 0.94 | 0.937 | 0.92 |
| Cc1cn(-c2cc(NC(=O)c3ccc(C)c(Nc4nccc(-c5cccnc5)n4)c3)cc(C(F)(F)F)c2)cn1 [Nilotinib] | 0.604 | 0.695 | 0.826 | 0.443 | 0.838 | 0.929 | 0.78 | 0.889 | 0.798 | 0.978 | 0.953 | 0.512 | 0.841 | 0.959 | 0.863 | 0.39 | 0.88 | 0.865 | 0.851 | 0.88 | 0.94 | 0.948 | 0.918 | 0.81 | 0.693 | 0.86 | 0.942 | 0.896 | 0.953 | 0.948 | 0.736 | 0.946 | 0.904 | 0.741 | 0.89 | 0.944 | 0.871 | 0.908 | 0.91 | 0.634 |
